Reference: patent US8592467B2, “Benzothiazole cyclobutyl amine derivatives” (Abbvie Inc., priority 2005, dated 2013)

| melting point | SMILES |
| --- | --- |
| 139 to 140 °C | O=c1cccnn1-c1ccc2nc([C@H]3C[C@H](N4CCCCC4)C3)sc2c1 [Example 48A, Trans-2-[2-(3-piperidin-1-ylcyclobutyl)-1,3-benzothiazol-6-yl]pyridazin-3(2H)-one] |
| 127 to 128 °C | O=c1cccnn1-c1ccc2nc([C@H]3C[C@@H](N4CCCCC4)C3)sc2c1 [Example 48B, Cis-2-[2-(3-piperidin-1-ylcyclobutyl)-1,3-benzothiazol-6-yl]pyridazin-3(2H)-one] |
